Measured values published in patent publication US20060079453A1, “Hla binding peptides and their uses” (priority 2002, published 2006).
No end group written: not given here.

How the values were obtained:
Assay in all cases: biochemical
Type in all cases: binding
[1] = target: HLA-DR DRB1*0101 (DR1) (Homo sapiens, UniProt P01903+P01911, A100R/D57E/F55L/F60I/F76Y/I96L/L162R/M171V/P40L/Q125E/R42F/V115G/Y59C); conditions: DRB1 *0101
[2] = target: HLA-DR DRB1*0301 (DR3) (Homo sapiens, UniProt P01903+P01911, A100K/A102G/A103R/A169T/F55Y/I96L/K41T/L162R/M171V/P40S/Q125H/Q178H/Q39Y/R42S/S66N/T106N/T262R/W38E/Y61H)
[3] = target: HLA-DR DRB1*0401 (DR4) (Homo sapiens, UniProt P01903+P01911, A100K/A169T/F76Y/I96L/K127E/L162R/M171V/N62H/P40V/Q125Y/R42H/S133A/S149N/S66Y/V115G/V209L/W38E); conditions: DRB1 *0401
[4] = target: HLA-DR DRB1*0405 (DR4) (Homo sapiens, UniProt P01903+P01911, A100R/A169T/D86S/F76Y/I96L/K127E/L162R/M171V/N62H/P40V/Q125Y/R42H/S133A/S149N/S66Y/V115G/V209L/W38E); conditions: DRB1 *0405
[5] = target: HLA-DR DRB1*0701 (DR7) (Homo sapiens, UniProt P01903+P01911, A100R/A102G/A103Q/D57E/D86V/E43K/F76Y/K127E/L162R/M171V/P40G/Q125H/Q99D/R33Q/R42Y/R54Q/S133A/S66F/T210M/V115G/Y107V/Y59L/Y89S); conditions: DRB1 *0701
[6] = target: HLA-DR DRB1*0802 (DR8) (Homo sapiens, UniProt P01903+P01911, A100R/A103L/A169T/F76Y/H45Y/I96F/K41T/L162R/M171V/P40S/Q125H/Q178H/Q39Y/Q99D/R218S/R42G/S66Y/V115G/W38E)
[7] = target: HLA-DR DRB1*1101 (DR11) (Homo sapiens, UniProt P01903+P01911, A100R/A169T/A87E/I96F/K41T/L162R/M171V/P40S/Q125H/Q178H/Q39Y/Q99D/R42S/S66Y/T262R/V115G/W38E); conditions: DRB1 *1101
[8] = target: HLA-DR DRB1*1302 (DR13) (Homo sapiens, UniProt P01903+P01911, A100E/A169T/K41T/L162R/M171V/P40S/Q125H/Q178H/Q39Y/Q99D/R42S/S66N/T262R/V115G/W38E/Y61H); conditions: DRBI *1302
[9] = target: HLA-DR DRB1*1501 (DR15) (Homo sapiens, UniProt P01903+P01911); conditions: DRBI *1501
[10] = target: HLA-DR DRB3*0101 (DR52) (Homo sapiens, UniProt P01903+P79483)
[11] = target: HLA-DR DRB4*0101 (DR53) (Homo sapiens, UniProt P01903+P13762, G164S); conditions: DRB4 *0101
[12] = target: HLA-DR DRB5*0101 (DR51) (Homo sapiens, UniProt P01903+Q30154); conditions: DRB5 *0101
[13] = target: HLA-DR DRB1*0901 (DR9) (Homo sapiens, UniProt P01903+P01911, A100R/A103E/D57H/D86V/F55Y/F60I/F76Y/I96F/K127E/L162R/M171V/P40D/Q125H/Q99R/R33Q/R42F/S133A/S66N/T210M/V115G/W38K/Y107V/Y59G/Y89S); conditions: DRB1 *0901

Chain of HLA-DR DRB1*0301 (DR3) (P01903 26-254 limits assumed, other chains not shown): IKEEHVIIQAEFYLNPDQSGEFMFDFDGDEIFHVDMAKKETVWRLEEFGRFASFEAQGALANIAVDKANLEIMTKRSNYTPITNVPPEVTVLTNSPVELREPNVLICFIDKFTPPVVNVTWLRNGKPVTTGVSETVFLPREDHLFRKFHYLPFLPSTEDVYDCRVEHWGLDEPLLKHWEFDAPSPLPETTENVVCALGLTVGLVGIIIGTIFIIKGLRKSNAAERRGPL
Chain of HLA-DR DRB1*1302 (DR13) (P01903 26-254 limits assumed, other chains not shown): as above
Chain of HLA-DR DRB1*1101 (DR11) (P01903 26-254 limits assumed, other chains not shown): as above

Sequence	IC50 [1] [µM]	IC50 [2] [µM]	IC50 [3] [µM]	IC50 [4] [µM]	IC50 [5] [µM]	IC50 [6] [µM]	IC50 [7] [µM]	IC50 [8] [µM]	IC50 [9] [µM]	IC50 [10] [µM]	IC50 [11] [µM]	IC50 [12] [µM]	IC50 [13] [µM]
RTGQIFKQTYSKFDT	1.55	20.3	1.68	0.04	0.046	16.4	6.96	0.066	0.155	14.7	0.201	0.064	
VEALYLVCGERGSFY	0.088	9.97		6.11	6.49	> 54.4	> 10.5	4.29	1.24	> 95.2		0.804	6.31
FVNQHLCGSDLVEAL [FVNQHLCGSDLVEAL]	0.117	> 74.8	19.2	14.9		> 54.4	> 1110	20.2		10	24.5	> 43.3	> 63
SWLEPVQFLRSVFAN	0.011	167		0.883	0.589	3.42		4.32		> 270		4.81	4
TSNLSTTVLGKLSQE		86.8	8.02	9.28	31.3	2.06	0.534	9.33	7.7	> 263		2.53	2.47
RMSSLHLKRYYGRIL	0.275		0.993	0.034	0.283	0.277	1.03	2.53	0.0013	> 26.2	2.26	0.491	15
FLRSVFANSLVYGAS	0.0043		0.0067	0.059	0.016	13.4	0.973	0.0056	0.013	158		0.141	15.1
EQTTTSITSLYQLEN	19	> 144	0.17	0.272	2.23	> 54.4	> 10.5			> 18.7	29.6	48.5	17.4
LYFVKVDVTGAYDTI	0.016	0.0096	0.0028	0.014	5.89	0.413	0.221	0.079	9.75	0.016	0.022	4.96	
YLVTGERGFFYTDKT	3.26		> 20.5	> 30.1		> 25.8	16.8	17.4	> 25.6	0.359	30.8	> 28.4	2.91
QSQKLLWQLNGRLEY	0.127	33.4	0.084	0.055		0.991	> 60.6	0.155	0.108	5.61		0.402	5.92
